Source: patent US5426104A, “Tricyclic carbapenem compounds, methods of preparation and methods of use” (Glaxo SpA, priority 1991, dated 1995)
≈ marks a conversion by molar mass, not a printed value.

Tests used:
[1] = intravenous administration to the mouse, adverse effects; type: in vivo; details: 500 mg/kg intravenously
Text: (§1) The compounds of the invention are essentially non-toxic at therapeutically useful doses.

[2] = intravenous administration to the rat, adverse effects; type: in vivo; details: 500 mg/kg intravenously
Text: as §1

[3] = system: E coli 1852E; details: 18 h
Protocol: (§2) For example the antibacterial activity of the compounds of the invention was determined using a standard microtiter broth serial dilution test. In this test the broth was incubated with approximately 10^5 colony forming units of the test organism and incubated at 35° for 18 hours in the presence of test compound.

[4] = system: S aureus 663E; assay: standard microtiter broth serial dilution test, S aureus 663E; details: 18 h
Protocol: as §2

[5] = system: E cloacae 3647; assay: standard microtiter broth serial dilution test, E cloacae 3647; details: 18 h
Protocol: as §2

[6] = system: S faecalis 850E; assay: standard microtiter broth serial dilution test, S faecalis 850E; details: 18 h
Protocol: as §2

[7] = system: B fragilis 2017E; assay: standard microtiter broth serial dilution test, B fragilis 2017E; details: 18 h
Protocol: as §2

[8] = system: P aeruginosa 1911E; assay: standard microtiter broth serial dilution test, P aeruginosa 1911E; details: 18 h
Protocol: as §2

C[C@@H](O)[C@H]1C(=O)N2C(C(=O)O)=C3[C@H](CCC[C@@H]3N(C)C=N)[C@H]12 [Example 1, (4S,8S,9R,10S,12R)-4-(N-methylformamidino)-10-(1-hydroxyethyl)-11-oxo-1-azatricyclo[7.2.0.0^3.^8]undec-2-ene-2-carboxylic acid]
adverse effects [1]: no adverse effects were observed
adverse effects [2]: no adverse effects were observed
MIC [3]: 0.5 µg/mL (≈ 1.63 µM)
MIC [4]: 0.1 µg/mL (≈ 0.325 µM)
MIC [5]: 1 µg/mL (≈ 3.25 µM)
MIC [6]: 1 µg/mL (≈ 3.25 µM)
MIC [7]: 0.2 µg/mL (≈ 0.651 µM)
MIC [8]: 8 µg/mL (≈ 26 µM)

CN=CN[C@H]1CCC[C@H]2C1=C(C(=O)O)N1C(=O)[C@H]([C@@H](C)O)[C@@H]21 [Example 2, (4 S,8S,9R,10S,12R)-4-[(3'-methyl)formamidino)-10-(1-hydroxyethyl)-11-oxo-1-azatricyclo[7.2.0.0^3.^8]undec-2-ene-2-carboxylic acid]
MIC [3]: 2 µg/mL (≈ 6.51 µM)
MIC [4]: 0.1 µg/mL (≈ 0.325 µM)
MIC [5]: 4 µg/mL (≈ 13 µM)
MIC [6]: 16 µg/mL (≈ 52.1 µM)
MIC [7]: 0.5 µg/mL (≈ 1.63 µM)
MIC [8]: 16 µg/mL (≈ 52.1 µM)
